For test [1], the system named is blood platelet aggregation in rabbits. The test can be described thus: Effect of compound B on blood platelet aggregation in rabbits in vitro (ADP). The format is cell-based, rabbit. Here is the method: Blood was taken from rabbit heart by puncture, to which was added 3.8% potassium citrate for anticoagulation (1:9). Certification for 15 minute at 1000 rpm takes the upper layer as rich blood platelet plasma (prp), and then centrifugation for 10 minutes with 4000 rpm takes the supernatant as poor blood platelet plasma (ppp). […] 10 μl physiological brine of aspirin was added to a positive control tube, then it was put into a measuring cell after warming for 2 minutes at 37° C. 10 ul of physiological brine solution of ADP sodium salt was added with stirring. The final concentration is […]. The maximal aggregation ratio on PAM-1 type of blood platelet instrument was observed within 3 minutes.

For another test, the system named is rabbit's blood platelets. Briefly: Effect of compound F on aggregation of rabbit's blood platelets in vitro. The format is cell-based. Here is the method:
Effect of Compound F on Blood Platelet Aggregation in Rabbit
Take blood from rabbit heart by puncturing, add 3.8% of potassium citrate for anticoagulation (1:9), centrifuge for 15 minutes at 1000 rpm, take the upper layer as blood platelet rich plasma (prp), and then centrifuge for 10 minutes at […], and take supematant as blood platelet poor plasma (ppp). The final concentration of compound F is respectively 250, 500, 1000 μg/ml, and the final concentration is respectively 250, 500, 1000 ug/ml. Add 10 ul of physical brine of aspirin to the positive-control tube to a final concentration of 250 μg/ml, and add 10 μl of physical brine to the control tube […]. Observe the maximal aggregation ratio on PAM-1 type instrument of blood platelet aggregation within 3 minute.

The test system of test [2] is Male Kun Ming strain mice. The test can be described thus: Effect of compound F on blood sugar elevation after oral dextrose. The format is in vivo. The following applies: dose 50 mg/kg oral, 7 days. Here is the method: Effect of compound F on blood sugar elevation in rat.
Male Kun Ming strain mice are divided into randomly experimental groups, and they respectively took orally the compound F at […]. The positive control group took orally glybenclamide 50 mg/kg, and the blank control group and normal control group take orally the same distilled water. The volume of medicine given is 20 ml/kg, lasting 7 days. They are forbidden to give feedstuff 10 hours before the last time of administration. Each group is given 2.5 g/kg (10 ml/kg) dextrose solution except of normal control group. Before and after 30 minute of administration of dextrose, 100 ul of blood was sampled from the eyepit, and the content of dextrose in serum was measured by way of dextrose oxygenation enzyme.

For another test, the system named is Female SD rats. Briefly: Effect on increasing blood sugar in rats caused by sucrose. The format is in vivo, rat. To be noted: for Value of blood sugar: dose 100 mg/kg. Here is the method:
Female SD rats fasted for 24 hours and were randomly divided into several groups. […] The normal group, control group and blank group were given the same amount of water. The given medicine volume was […], after 30 minutes each group was given saccharose 1/kg(5 ml/kg) except the normal group, and blood was extracted from the eyes of rats after 30, 60 and 120 minutes respectively, the content of glucose in the serum was measured.

A further test has as its system normal mice. The test can be described thus: Effect of compound B on blood sugar in normal mice. The following applies: for Value of blood sugar: dose 100 mg/kg. The format is in vivo. Here is the method: The positive control group orally took tolbutol at 100 mg/kg. The blank control group took orally same distilled water. The volume of medicine given is 20 ml/kg, lasting 14 days. The test drug was administered (provided that they are pre-forbidden to give food 5 hrs before administration) after the days 1, 3, 7, 14 of administration. 3 hrs after administration, blood (10 ul) was taken from the eyepit. The content of dextrose in serum was measured by reagent box.

Consider `CC(=O)Oc1ccccc1C(=O)O` [Aspirin, aspirin], for which the “Inhibition of blood platelet aggregation (in words)” value in test [1] (compound B 500, 1000 μg/ml, aspirin 250 μg/ml) is “obviously inhibit blood platelet from aggregating”. Further, the Inhibition ratio in test [1] (final concentration 250) came to 50.3. The “Maximal aggregation ratio (%)” value in test [1] (final concentration 250 (μg/ml), ADP, within 3 minutes) was 23.7 ± 6.0 %. The inhibition (as a rule, the relative decrease from the control value, in per cent) at 250 µg/mL in the test with rabbit's blood platelets (Oryctolagus cuniculus, Platelet, final concentration 250 μg/ml, read-out: Inhibition rate (%)) is 50.3%. Further, the “Inhibition of aggregation of blood platelet (in words)” value with rabbit's blood platelets (compound F 500, 1000 μg/ml, aspirin 250 μg/ml) is reported as “obviously inhibit the aggregation of blood platelet”. The “Maximal aggregation rate (%)” value in the test with rabbit's blood platelets (final concentration 250 μg/ml, within 3 minute) was 23.7 ± 6.0 %.
In the case of `COc1ccc(Cl)cc1C(=O)NCCc1ccc(S(=O)(=O)NC(=O)NC2CCCCC2)cc1` [glybenclamide], the “Value of blood sugar” value in test [2] (0 minute (before dextrose)) came out at 4.48 ± 0.83; in test [2] (30 minutes after dextrose), 8.18 ± 1.72.
Take `[H]/N=C(/N)N/C(=N/[H])NCCc1ccccc1` [phenformin]: the “Effect on the increased value of blood sugar (in words)” value with Female SD rats (compound B 200 mg/kg, performing 100 mg/kg, within 30 minutes) was “reduce the increased value of blood sugar remarkably”. Besides, the “Value of blood sugar” value is recorded as 4.24 ± 0.87 mmol/L in the test on Female SD rats (30 minutes after sucrose), 4.74 ± 0.90 mmol/L with Female SD rats (60 minutes after sucrose) and 4.79 ± 1.03 mmol/L with Female SD rats (120 minutes after sucrose).
Turning to `CCCCNC(=O)NS(=O)(=O)c1ccc(C)cc1` [tolbutol], in the test on normal mice (Compound B 50, 100, 200 mg/kg for 14 days, tolbutol from day 3), the “Effect on blood sugar of normal mice (in words)” value is listed as “obvious effect for lowering the blood sugar of normal mice”. Besides, the “Value of blood sugar” value in the test on normal mice (day 1) is listed as 6.48 ± 1.18; with normal mice (day 3), 5.22 ± 0.80; in the test with normal mice (day 7), 6.62 ± 0.96; in the test on normal mice (day 14), 5.75 ± 1.02.

(Values after patent publication US6833443B1, “Gymnemic acid derivatives, process for the preparation thereof and use thereof as medicine” (Guilin Jiqi Pharmaceutical Co., Ltd., priority 1999, dated 2004).)
